# Legend:
# Test in all cases: ≥ marks a high value that may be exact or a test limit, other limits are often not marked, values filed in µg/mL are converted to µM
# [1] = test system: Enterococcus faecalis PCM 2673
# [2] = test system: Pseudomonas aeruginosa ATCC 9027
# [3] = test system: Candida albicans ATCC 10231
# [4] = test system: Escherichia coli ATCC 25922
# [5] = test system: Staphylococcus aureus ATCC 25923
# Shigella dysenteriae = test system: Shigella dysenteriae
# Bacillus subtilis = test system: Bacillus subtilis
# Micrococcus luteus = test system: Micrococcus luteus
# Proteus mirabilis = test system: Proteus mirabilis
# Pseudomonas aeruginosa = test system: Pseudomonas aeruginosa
# Salmonella typhimurium = test system: Salmonella typhimurium
# Staphylococcus aureus = test system: Staphylococcus aureus
# Klebsiella pneumoniae = test system: Klebsiella pneumoniae
# [6] = test system: Staphylococcus epidermidis
# Escherichia coli = test system: Escherichia coli
# [7] = test system: Staphylococcus aureus USA 300
# Escherichia coli K-12 = test system: Escherichia coli K-12
# Bacillus megaterium = test system: Bacillus megaterium
# [8] = test system: Staphylococcus aureus ATCC 2592
# [9] = test system: Pseudomonas aeruginosa CMCCB 10104
# [10] = test system: Candida albicans ATCC 2002
# [11] = test system: Pseudomonas aeruginosa PAO1
# [12] = test system: Klebsiella pneumoniae ATCC 13883
# [13] = test system: Staphylococcus epidermidis ATCC 12228
# [14] = test system: Candida albicans ATCC 24433
# [15] = test system: Listeria monocytogenes LO28
# [16] = test system: Cronobacter sakazakii DPC 6440
# [17] = test system: Staphylococcus aureus RN4220
# Escherichia coli ML-35p = test system: Escherichia coli ML-35p
smiles,measurement,setting,value
CC[C@H](C)[C@H](NC(=O)[C@H](CCCCN)NC(=O)[C@H](CCCCN)NC(=O)[C@@H](NC(=O)[C@@H](NC(=O)[C@H](CC(=O)O)NC(=O)[C@H](Cc1ccccc1)NC(=O)[C@H](CC(C)C)NC(=O)[C@H](C)N)[C@@H](C)CC)[C@@H](C)CC)C(=O)N[C@@H](C)C(=O)N[C@@H](CCC(=O)O)C(=O)N[C@@H](CO)C(=O)N[C@@H](Cc1ccccc1)C(N)=O [ALFDIIKKIAESF],MIC,[1],≥ 85.6 µM
same,MIC,[2],343 µM
same,MIC,[3],85.6 µM
same,MIC,[4],85.6 µM
same,MIC,[5],343 µM
CC(C)C[C@H](NC(=O)[C@H](C)NC(=O)CNC(=O)[C@H](CC(C)C)NC(=O)[C@@H](N)Cc1ccccc1)C(=O)N[C@@H](Cc1ccccc1)C(=O)N[C@@H](CCCCN)C(=O)N[C@@H](Cc1ccccc1)C(=O)N[C@@H](C)C(=O)N[C@@H](CO)C(=O)N[C@@H](CCCCN)C(=O)O [FLGALFKFASK],MIC,Shigella dysenteriae,≥ 81.4 µM
same,MIC,Bacillus subtilis,20.4 µM
same,MIC,Micrococcus luteus,20.4 µM
same,MIC,Proteus mirabilis,≥ 163 µM
same,MIC,Pseudomonas aeruginosa,> 163 µM
same,MIC,Salmonella typhimurium,≥ 163 µM
same,MIC,Staphylococcus aureus,40.7 µM
same,MIC,Klebsiella pneumoniae,81.4 µM
same,MIC,[6],≥ 81.4 µM
same,MIC,Escherichia coli,81.4 µM
CC(C)[C@H](NC(=O)[C@H](CO)NC(=O)[C@H](Cc1cnc[nH]1)NC(=O)[C@H](Cc1ccccc1)NC(=O)[C@H](C)NC(=O)[C@H](CCCCN)NC(=O)CNC(=O)[C@H](Cc1ccccc1)NC(=O)CN)C(=O)N[C@@H](CO)C(=O)N[C@@H](CC(N)=O)C(=O)N[C@@H](Cc1ccccc1)C(=O)N[C@@H](C)C(=O)N[C@@H](CCCCN)C(=O)N[C@@H](CCCCN)C(=O)N[C@@H](Cc1cnc[nH]1)C(=O)N[C@@H](CCCCN)C(=O)N[C@H](C(=O)N[C@@H](C)C(N)=O)[C@@H](C)O [GFGKAFHSVSNFAKKHKTA],MIC,[7],≥ 100 µM
same,MIC,Escherichia coli K-12,≥ 100 µM
CC[C@H](C)[C@H](N=C(O)CN)C(O)=NCC(O)=N[C@H](C(O)=N[C@@H](CCCCN)C(O)=N[C@H](C(O)=N[C@@H](CC(C)C)C(O)=NCC(O)=NCC(O)=N[C@H](C(O)=N[C@@H](CCCCN)C(O)=N[C@H](C(O)=N[C@@H](C)C(O)=N[C@@H](CC(C)C)C(O)=N[C@@H](CCCCN)C(O)=NCC(O)=N[C@@H](C)C(O)=N[C@@H](CC(C)C)C(O)=N[C@@H](CCCCN)C(O)=N[C@@H](CCC(=O)O)C(O)=N[C@@H](CC(C)C)C(O)=N[C@@H](C)C(O)=N[C@@H](CO)C(O)=N[C@H](C(O)=N[C@@H](Cc1ccc(O)cc1)C(O)=N[C@@H](C)C(O)=N[C@@H](CC(=N)O)C(=N)O)[C@@H](C)O)[C@@H](C)O)C(C)C)[C@@H](C)CC)[C@@H](C)O [GIGTKILGGVKTALKGALKELASTYAN],MIC,Bacillus megaterium,7.29 µM
same,MIC,[8],7.29 µM
same,MIC,Shigella dysenteriae,1.01 µM
same,MIC,[9],7.29 µM
same,MIC,[10],1.12 µM
same,MIC,[4],7.29 µM
same,MIC,Klebsiella pneumoniae,3.36 µM
CC[C@H](C)[C@H](NC(=O)[C@H](C)NC(=O)[C@H](CCCCN)NC(=O)[C@@H](NC(=O)[C@@H](NC(=O)[C@H](CC(=O)O)NC(=O)[C@H](Cc1ccccc1)NC(=O)[C@H](CC(C)C)NC(=O)CN)[C@@H](C)CC)[C@@H](C)CC)C(=O)N[C@@H](C)C(=O)N[C@@H](CCC(=O)O)C(=O)N[C@@H](CO)C(=O)N[C@@H](Cc1ccccc1)C(N)=O [GLFDIIKAIAESF],MIC,[1],≥ 45 µM
same,MIC,[2],> 360 µM
same,MIC,[3],45 µM
same,MIC,[4],89.9 µM
same,MIC,[5],> 360 µM
CC(C)C[C@H](NC(=O)[C@H](CC(C)C)NC(=O)[C@H](CCCCN)NC(=O)[C@H](CC(C)C)NC(=O)CNC(=O)[C@H](CC(C)C)NC(=O)[C@H](CCCCN)NC(=O)[C@H](CC(C)C)NC(=O)[C@H](CC(C)C)NC(=O)[C@H](CC(C)C)NC(=O)[C@H](CO)NC(=O)[C@H](CC(C)C)NC(=O)CN)C(N)=O [GLSLLLKLGLKLL],MIC,[11],> 25 µM
same,MIC,[12],25 µM
same,MIC,[4],> 25 µM
same,MIC,[7],1.13 µM
CC(C)C[C@H](NC(=O)CNC(=O)CNC(=O)CNC(=O)[C@H](C)NC(=O)[C@H](CC(C)C)NC(=O)[C@H](CC(N)=O)NC(=O)CNC(=O)[C@H](CC(C)C)NC(=O)[C@H](CC(C)C)NC(=O)CNC(=O)[C@@H](NC(=O)[C@@H](NC(=O)[C@H](CO)NC(=O)[C@H](CC(N)=O)NC(=O)[C@H](CC(C)C)NC(=O)[C@H](CC(C)C)NC(=O)CNC(=O)[C@H](CO)NC(=O)[C@@H](NC(=O)[C@H](CC(C)C)NC(=O)CN)C(C)C)C(C)C)[C@@H](C)O)C(=O)O [GLVSGLLNSVTGLLGNLAGGGL],MIC,[4],> 100 µM
same,MIC,[13],> 100 µM
same,MIC,[14],≥ 100 µM
CC[C@H](C)[C@H](NC(=O)[C@H](Cc1c[nH]c2ccccc12)NC(=O)[C@@H]1CCCN1C(=O)[C@H](CCCCN)NC(=O)[C@H](CCSC)NC(=O)[C@H](C)NC(=O)[C@@H](N)CCCCN)C(=O)N[C@@H](CCC(N)=O)C(=O)N1CCC[C@H]1C(=O)N[C@@H](CCCCN)C(=O)N[C@H](C(=O)N[C@@H](CCCCN)C(=O)N[C@H](C(=O)N[C@H](C(=O)N1CCC[C@H]1C(=O)O)[C@@H](C)CC)C(C)C)[C@@H](C)O [KAMKPWIQPKTKVIP],MIC,[15],≥ 156 µM
same,MIC,[16],≥ 1250 µM
NC(=O)[C@H](CCCN=C(N)N)NC(=O)[C@H](CCCN=C(N)N)NC(=O)[C@H](Cc1c[nH]c2ccccc12)NC(=O)[C@H](CCCN=C(N)N)NC(=O)[C@H](CCCN=C(N)N)NC(=O)[C@H](Cc1c[nH]c2ccccc12)NC(=O)[C@H](Cc1c[nH]c2ccccc12)NC(=O)[C@H](CCCN=C(N)N)NC(=O)[C@@H](N)CCCN=C(N)N [RRWWRRWRR],MIC,[17],≥ 100 µM
same,MIC,Escherichia coli ML-35p,25 µM
CC[C@H](C)[C@H](NC(=O)[C@@H](N)Cc1c[nH]c2ccccc12)C(=O)N[C@@H](C)C(=O)N1CCC[C@H]1C(=O)N[C@@H](CCCCN)C(=O)N[C@H](C(=O)N[C@@H](CCCCN)C(=O)N[C@H](C(=O)N[C@H](C(=O)N1CCC[C@H]1C(=O)N[C@@H](Cc1ccc(O)cc1)C(=O)N[C@H](C(=O)N[C@@H](CCCN=C(N)N)C(=O)N[C@@H](Cc1ccc(O)cc1)C(=O)N[C@@H](CC(C)C)C(=O)O)C(C)C)[C@@H](C)CC)C(C)C)[C@@H](C)O [WIAPKTKVIPYVRYL],MIC,[15],19.5 µM
same,MIC,[16],≥ 78.1 µM
CC[C@H](C)[C@H](NC(=O)[C@@H](N)Cc1c[nH]c2ccccc12)C(=O)N[C@@H](CCC(N)=O)C(=O)N1CCC[C@H]1C(=O)N[C@@H](CCCCN)C(=O)N[C@H](C(=O)N[C@@H](CCCCN)C(=O)N[C@H](C(=O)N[C@H](C(=O)N1CCC[C@H]1C(=O)N[C@@H](Cc1ccc(O)cc1)C(=O)N[C@H](C(=O)N[C@@H](CCCN=C(N)N)C(=O)N[C@@H](Cc1ccc(O)cc1)C(=O)N[C@@H](C)C(=O)O)C(C)C)[C@@H](C)CC)C(C)C)[C@@H](C)O [WIQPKTKVIPYVRYA],MIC,[15],≥ 39.1 µM
same,MIC,[16],≥ 78.1 µM
